Laboratory results: patent US20240180929A1, “TREATMENT OF INFECTIOUS DISEASES USING BCL-2 FAMILY PROTEIN INHIBITORS” (TEXAS BIOMEDICAL RESEARCH INSTITUTE, priority 2020, published 2024)

How the values were obtained:
M.tb-lux = type: cell-based, Mycobacterium tuberculosis
M.tb [1] = test: CFU assay, M.tb-infected murine BMDMs; type: cell-based, Mycobacterium tuberculosis; conditions: 30 μM pan inhibitor, 4 days of treatment, MOI 1
M.tb [2] = test: CFU assay, M.tb-infected murine lung macrophages; type: cell-based, Mycobacterium tuberculosis; conditions: 30 μM pan inhibitor, 2 days of treatment, MOI 1
M.tb [3] = type: in vivo, BALB/c mice; conditions: isoniazid positive control, vs placebo
M.tb [4] = test: CFU assay, M.tb-infected human in vitro TB granulomas; type: cell-based, Mycobacterium tuberculosis; conditions: 30 μM sabutoclax, 7 days

For Cc1c(-c2c(-c3ccc(F)o3)sc3ncnc(O[C@H](Cc4ccccc4OCc4ccnn4CC(F)(F)F)C(=O)O)c23)ccc(OCCN2CCN(C)CC2)c1Cl [S63845], the “M.tb growth in human MDMs (luciferase)” value (M.tb-lux) was “reduced M.tb growth in donor 1 after 4 days, but to a limited extent relative to the pan inhibitor Sabutoclax”.

With CC(C)c1ccccc1Cc1cc(C(=O)Nc2ccc(S(=O)(=O)c3ccccc3C(C)(C)C)cc2)c(O)c(O)c1O [TW37] the “M.tb CFUs normalized to DMSO control in BMDMs” value (M.tb [1]) was “reduction in the number of M.tb CFUs” and the “number of M.tb CFUs in lung macrophages” value (M.tb [2]) was “reduction in the number of M.tb CFUs”.

In the case of NNC(=O)c1ccncc1 [isoniazid], the “M.tb growth in murine lungs (CFU)” value (M.tb [3]) was “significantly reduced M.tb growth in murine lungs”, the “M.tb growth in murine spleen (CFU)” value (M.tb [3]) was “significantly reduced M.tb growth” and the “acid fast stained M.tb in the mouse lung” value (M.tb [3]) was “reduction in bacteria”. For the same compound, the “lung inflammation (hematoxylin and eosin stain)” value (M.tb [3]) was “reduced inflammation”.

For Cc1cc2c(C(=O)NC[C@H](C)c3ccccc3)c(O)c(O)cc2c(O)c1-c1c(C)cc2c(C(=O)NC[C@H](C)c3ccccc3)c(O)c(O)cc2c1O [sabutoclax], the “M.tb CFUs normalized to DMSO control in BMDMs” value (M.tb [1]) was “reduction in the number of M.tb CFUs”, the “number of M.tb CFUs in lung macrophages” value (M.tb [2]) was “reduction in the number of M.tb CFUs” and the “M.tb growth in human granulomas (CFU)” value (M.tb [4]) was “significant reduction in M.tb growth”.
